What follows are compounds tested against Protein Kinase C beta 2 (PKCβII) (Homo sapiens (Human), UniProt P05771) (assay: PKCβII coupled spectrophotometric kinase assay (PK/LDH, NADH absorbance at 340 nm)). Conditions: apparent Ki, ATP competitive inhibition model (Morrison equation); 0.1 mM ATP, 5 nM PKC, 30° C.; read-out: Ki app.
Format: biochemical
Protocol: Protein Kinase C beta 2 (PKCβII) catalyzes the production of ADP from ATP that accompanies the phosphoryl transfer to the PKC Pseudosubstrate peptide (A→S, RFARKGSLRQKNV). This transfer is coupled to the oxidation of β-NADH through the activities of Pyruvate Kinase (PK) and Lactate Dehydrogenase (LDH). β-NADH conversion to NAD+ is monitored by the decrease in absorbance at 340 nm (e=6.22 cm^−1 mM^−1) using a Molecular Devices SPECTRA max PLUS spectrophotometer.
A typical assay was carried out on a 96-well, clear microtiter plate in a Molecular Devices spectrophotometer for 20 minutes at 30° C. in 0.1 mL of assay buffer containing 50 mM HEPES, pH 7.4, 5 nM PKC, 23 units of pyruvate kinase, 33 units of lactate dehydrogenase, 0.15 mM peptide, 0.1 mM ATP, 1 mM DTT, 4 mM PEP, 8 mM MgCl2, 0.3 mM NADH, 60 mM CaCl2, 10 mg/mL PS, 50 ng/mL PMA, 7.5% DMSO and from about 10,000 nM to 0.169 nM compound inhibitor. Stock solutions of 3-sn-phosphatidyl-L-serine (PS) and phorbol-12-myristate-13-acetate (PMA) were sonicated for 30 seconds just prior to addition to assay buffer and assays were initiated by the addition of 100 μM ATP.
Steady-state kinetic parameters for the bi-bi kinase reaction were determined at saturating phospho-acceptor peptide substrate concentration (0.15 mM) by fitting initial velocity data to the Michaelis-Menten equation, v=Vmax[S]/(KM+[S]) where v is the measured initial velocity, Vmax is the maximal enzyme velocity, [S] is the ATP substrate concentration, and KM is the Michealis constant for ATP. Enzyme turnover values (kcat) were calculated according to […], where [E] is the total enzyme concentration. Enzyme inhibition constants (apparent Ki values) were determined by fitting initial velocities at variable inhibitor concentrations to a model for ATP competitive inhibition based on the Morrison equation). Morrison, J. F., Biochim. Biophys Acta 185: 269-286 (1969).

Chain of Protein Kinase C beta 2 (PKCβII) (P05771 other isoform, or with tags, fused parts or gaps): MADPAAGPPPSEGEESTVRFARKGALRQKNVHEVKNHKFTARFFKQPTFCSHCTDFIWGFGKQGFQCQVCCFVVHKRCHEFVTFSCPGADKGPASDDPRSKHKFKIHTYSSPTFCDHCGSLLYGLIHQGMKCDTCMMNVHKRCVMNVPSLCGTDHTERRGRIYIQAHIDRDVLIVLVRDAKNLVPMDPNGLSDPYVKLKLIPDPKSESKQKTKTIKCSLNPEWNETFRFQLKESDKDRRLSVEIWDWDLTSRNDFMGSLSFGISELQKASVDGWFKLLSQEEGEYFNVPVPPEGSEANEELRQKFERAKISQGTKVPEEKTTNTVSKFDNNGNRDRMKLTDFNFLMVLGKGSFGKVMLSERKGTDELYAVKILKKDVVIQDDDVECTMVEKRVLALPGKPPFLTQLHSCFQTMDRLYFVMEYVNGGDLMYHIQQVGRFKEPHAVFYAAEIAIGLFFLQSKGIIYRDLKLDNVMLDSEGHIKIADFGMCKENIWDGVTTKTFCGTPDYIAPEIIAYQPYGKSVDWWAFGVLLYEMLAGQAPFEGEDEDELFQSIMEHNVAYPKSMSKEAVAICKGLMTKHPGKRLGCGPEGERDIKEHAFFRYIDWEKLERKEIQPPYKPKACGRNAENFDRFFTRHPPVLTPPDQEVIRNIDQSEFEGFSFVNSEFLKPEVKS

Row | SMILES | Ki [nM]
1 | CN1CCC(F)(C(=O)N2Cc3c(Nc4nc(OCC(F)(F)F)ncc4F)n[nH]c3C2(C)C)CC1 [Example L4, 5-[(4-fluoro-1-methylpiperidin-4-yl)carbonyl]-N-[5-fluoro-2-(2,2,2-trifluoroethoxy)pyrimidin-4-yl]-6,6-dimethyl-1,4,5,6-tetrahydropyrrolo[3,4-c]pyrazol-3-amine] | 1.71
2 | CCOc1ncc(F)c(Nc2n[nH]c3c2CN(C(=O)N2C[C@@H](C)N(C4CCOCC4)C[C@@H]2C)C3(C)C)n1 [Example K21, 5-{[(2S,5R)-2,5-dimethyl-4-(tetrahydro-2H-pyran-4-yl)piperazin-1-yl]carbonyl}-N-(2-ethoxy-5-fluoropyrimidin-4-yl)-6,6-dimethyl-1,4,5,6-tetrahydropyrrolo[3,4-c]pyrazol-3-amine] | < 10
3 | COCCCN1C[C@H](C)N(C(=O)N2Cc3c(Nc4nc(OCC(F)(F)F)ncc4F)n[nH]c3C2(C)C)C[C@H]1C [Example K6, N-[5-fluoro-2-(2,2,2-trifluoroethoxy)pyrimidin-4-yl]-5-{[(2S,5R)-4-(3-methoxypropyl)-2,5-dimethylpiperazin-1-yl]carbonyl}-6,6-dimethyl-1,4,5,6-tetrahydropyrrolo[3,4-c]pyrazol-3-amine] | 0.376
4 | Cc1ccc(F)c(Nc2n[nH]c3c2CN(C(=O)N2C[C@@H](C)N(C)C[C@@H]2C)C3(C)C)n1 [Example J3, N-(3-fluoro-6-methylpyridin-2-yl)-6,6-dimethyl-5-{[(2S,5R)-2,4,5-trimethylpiperazin-1-yl]carbonyl}-1,4,5,6-tetrahydropyrrolo[3,4-c]pyrazol-3-amine] | 2.63
5 | C[C@@H]1CN(C(=O)N2Cc3c(Nc4ccnc(C#N)n4)n[nH]c3C2(C)C)[C@@H](C)CN1C [Example B6, 4-[(6,6-dimethyl-5-{[(2S,5R)-2,4,5-trimethylpiperazin-1-yl]carbonyl}-1,4,5,6-tetrahydropyrrolo[3,4-c]pyrazol-3-yl)amino]pyrimidine-2-carbonitrile] | 2.43
6 | CCOc1ncc(F)c(Nc2n[nH]c3c2CN(C(=O)C2CCN(C4CCOCC4)CC2)C3(C)C)n1 [Example L6, N-(2-ethoxy-5-fluoropyrimidin-4-yl)-6,6-dimethyl-5-{[1-(tetrahydro-2H-pyran-4-yl)piperidin-4-yl]carbonyl}-1,4,5,6-tetrahydropyrrolo[3,4-c]pyrazol-3-amine] | 181

The remaining lines, values ahead:

Row | Ki [nM] | SMILES
7 | 1.01 | Cc1ncc(F)c(Nc2n[nH]c3c2CN(C(=O)N2CC4(CCCC4)N(C)C[C@@H]2C)C3(C)C)n1 [Example A10, 5-{[(8S)-6,8-dimethyl-6,9-diazaspiro[4.5]dec-9-yl]carbonyl}-N-(5-fluoro-2-methylpyrimidin-4-yl)-6,6-dimethyl-1,4,5,6-tetrahydropyrrolo[3,4-c]pyrazol-3-amine]
8 | 8.75 | C[C@H]1CN(C)C(C)(C)CN1C(=O)N1Cc2c(Nc3nc(N(C)C)ncc3F)n[nH]c2C1(C)C [Example A2, N^4-(6,6-dimethyl-5-{[(2S)-2,4,5,5-tetramethylpiperazin-1-yl]carbonyl}-1,4,5,6-tetrahydropyrrolo[3,4-c]pyrazol-3-yl)-5-fluoro-N^2,N^2-dimethylpyrimidine-2,4-diamine]
9 | < 10 | CCc1ncc(F)c(Nc2n[nH]c3c2CN(C(=O)N2CC(CCO)N(C)C[C@@H]2C)C3(C)C)n1 (stereo partly drawn) [Example E5, 2-((5S)-4-{[3-[(2-ethyl-5-fluoropyrimidin-4-yl)amino]-6,6-dimethyl-4,6-dihydropyrrolo[3,4-c]pyrazol-5(1H)-yl]carbonyl}-1,5-dimethylpiperazin-2-yl)ethanol]
10 | 3.95 | C[C@H]1CN(C)C(C)(C)CN1C(=O)N1Cc2c(Nc3nc(NC4CC4)ncc3F)n[nH]c2C1(C)C [Example A5, N2-cyclopropyl-N4-(6,6-dimethyl-5-{[(2S)-2,4,5,5-tetramethylpiperazin-1-yl]carbonyl}-1,4,5,6-tetrahydropyrrolo[3,4-c]pyrazol-3-yl)-5-fluoropyrimidine-2,4-diamine]

— patent US9518060B2, “Substituted pyrrolo[3,4-c]pyrazoles as PKC kinase inhibitors” (PFIZER INC., priority 2007, dated 2016)
